Laboratory results taken from ChEMBL document CHEMBL1152364, “Dipeptidyl nitrile inhibitors of Cathepsin L” (Bioorg Med Chem Lett, 2009).

Target: Cathepsin B (Homo sapiens, UniProt P07858)
Experiment: Inhibition of cathepsin B

Compound	IC50
Cc1cc(C(=O)N[C@@H](Cc2cccc(Cl)c2)C(=O)NCC#N)c(C)s1	2 µM
N#CCNC(=O)[C@H](Cc1cccc(Cl)c1)NC(=O)C1CCCCCC1	> 10 µM
N#CCNC(=O)[C@H](Cc1cccc(Cl)c1)NC(=O)c1cccc2c1CCCC2	> 10 µM
Cc1ccccc1C(=O)N[C@@H](Cc1cccc(Cl)c1)C(=O)NCC#N	> 10 µM
N#CCNC(=O)[C@H](Cc1cccc(Cl)c1)NC(=O)C1=CCCCC1	> 10 µM
Cc1nc(C)c(C(=O)N[C@@H](Cc2cccc(Cl)c2)C(=O)NCC#N)s1	10 µM
N#CCNC(=O)[C@H](Cc1cccc(Cl)c1)NC(=O)c1ccnc2ccccc12	> 10 µM
CCc1cc(C(=O)N[C@@H](Cc2cccc(Cl)c2)C(=O)NCC#N)n(C)n1	7.94 µM
Cc1cc(C(=O)N[C@@H](Cc2cccc(Cl)c2)C(=O)NCC#N)n(C)n1	> 10 µM
Cc1nn(C)cc1C(=O)N[C@@H](Cc1cccc(Cl)c1)C(=O)NCC#N	> 10 µM
Cc1ccc(C)c(C(=O)N[C@@H](Cc2cccc(Cl)c2)C(=O)NCC#N)c1	5.01 µM
N#CCNC(=O)[C@H](Cc1cccc(Cl)c1)NC(=O)c1cccc2ccccc12	10 µM
N#CCNC(=O)[C@H](Cc1cccc(Cl)c1)NC(=O)c1cccc(Cl)c1	3.98 µM
Cc1nc(C(=O)N[C@@H](Cc2cccc(Cl)c2)C(=O)NCC#N)c(C)o1	> 10 µM
Cc1cccc(C(=O)N[C@@H](Cc2cccc(Cl)c2)C(=O)NCC#N)c1C	> 10 µM
Cc1cc(C)cc(C(=O)N[C@@H](Cc2cccc(Cl)c2)C(=O)NCC#N)c1	7.94 µM
N#CCNC(=O)[C@H](Cc1cccc(Cl)c1)NC(=O)C1CCCCC1	> 10 µM
CC(C)c1cc(C(=O)N[C@@H](Cc2cccc(Cl)c2)C(=O)NCC#N)n(C)n1	5.01 µM
Cc1ccc(C(=O)N[C@@H](Cc2cccc(Cl)c2)C(=O)NCC#N)cc1	2.51 µM
Cc1cc(C(=O)N[C@@H](Cc2cccc(Cl)c2)C(=O)NCC#N)c2cc(C)ccc2c1	> 10 µM
Cc1cccc(C(=O)N[C@@H](Cc2cccc(Cl)c2)C(=O)NCC#N)c1	5.01 µM

Target: T1, Cathepsin K (Homo sapiens, UniProt P43235)
T1 sequence (P43235 whole entry): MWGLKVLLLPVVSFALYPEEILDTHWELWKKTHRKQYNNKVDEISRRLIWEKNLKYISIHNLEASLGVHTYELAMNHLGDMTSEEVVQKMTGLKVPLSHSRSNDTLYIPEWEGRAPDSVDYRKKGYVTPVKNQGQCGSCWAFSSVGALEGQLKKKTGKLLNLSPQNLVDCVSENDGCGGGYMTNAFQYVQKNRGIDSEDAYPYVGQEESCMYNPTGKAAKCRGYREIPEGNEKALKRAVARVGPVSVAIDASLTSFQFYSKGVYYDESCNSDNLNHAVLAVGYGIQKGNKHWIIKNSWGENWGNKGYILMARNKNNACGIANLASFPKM
Experiment: Inhibition of cathepsin K

Compound	IC50
Cc1cc(C(=O)N[C@@H](Cc2cccc(Cl)c2)C(=O)NCC#N)c(C)s1	5.01 µM
N#CCNC(=O)[C@H](Cc1cccc(Cl)c1)NC(=O)C1CCCCCC1	5.01 µM
N#CCNC(=O)[C@H](Cc1cccc(Cl)c1)NC(=O)c1cccc2c1CCCC2	> 10 µM
Cc1ccccc1C(=O)N[C@@H](Cc1cccc(Cl)c1)C(=O)NCC#N	5.01 µM
N#CCNC(=O)[C@H](Cc1cccc(Cl)c1)NC(=O)C1=CCCCC1	> 10 µM
Cc1nc(C)c(C(=O)N[C@@H](Cc2cccc(Cl)c2)C(=O)NCC#N)s1	1.26 µM
N#CCNC(=O)[C@H](Cc1cccc(Cl)c1)NC(=O)c1ccnc2ccccc12	> 10 µM
CCc1cc(C(=O)N[C@@H](Cc2cccc(Cl)c2)C(=O)NCC#N)n(C)n1	5.01 µM
Cc1cc(C(=O)N[C@@H](Cc2cccc(Cl)c2)C(=O)NCC#N)n(C)n1	6.31 µM
Cc1nn(C)cc1C(=O)N[C@@H](Cc1cccc(Cl)c1)C(=O)NCC#N	2.51 µM
Cc1ccc(C)c(C(=O)N[C@@H](Cc2cccc(Cl)c2)C(=O)NCC#N)c1	6.31 µM
N#CCNC(=O)[C@H](Cc1cccc(Cl)c1)NC(=O)c1cccc2ccccc12	> 10 µM
N#CCNC(=O)[C@H](Cc1cccc(Cl)c1)NC(=O)c1cccc(Cl)c1	6.31 µM
Cc1nc(C(=O)N[C@@H](Cc2cccc(Cl)c2)C(=O)NCC#N)c(C)o1	10 µM
Cc1cccc(C(=O)N[C@@H](Cc2cccc(Cl)c2)C(=O)NCC#N)c1C	> 10 µM
Cc1cc(C)cc(C(=O)N[C@@H](Cc2cccc(Cl)c2)C(=O)NCC#N)c1	> 10 µM
N#CCNC(=O)[C@H](Cc1cccc(Cl)c1)NC(=O)C1CCCCC1	> 10 µM
CC(C)c1cc(C(=O)N[C@@H](Cc2cccc(Cl)c2)C(=O)NCC#N)n(C)n1	2 µM
Cc1ccc(C(=O)N[C@@H](Cc2cccc(Cl)c2)C(=O)NCC#N)cc1	1.26 µM
Cc1cc(C(=O)N[C@@H](Cc2cccc(Cl)c2)C(=O)NCC#N)c2cc(C)ccc2c1	> 10 µM
Cc1cccc(C(=O)N[C@@H](Cc2cccc(Cl)c2)C(=O)NCC#N)c1	6.31 µM

Target: T2, Cathepsin L2 (Homo sapiens, UniProt O60911)
T2 sequence (O60911 whole entry): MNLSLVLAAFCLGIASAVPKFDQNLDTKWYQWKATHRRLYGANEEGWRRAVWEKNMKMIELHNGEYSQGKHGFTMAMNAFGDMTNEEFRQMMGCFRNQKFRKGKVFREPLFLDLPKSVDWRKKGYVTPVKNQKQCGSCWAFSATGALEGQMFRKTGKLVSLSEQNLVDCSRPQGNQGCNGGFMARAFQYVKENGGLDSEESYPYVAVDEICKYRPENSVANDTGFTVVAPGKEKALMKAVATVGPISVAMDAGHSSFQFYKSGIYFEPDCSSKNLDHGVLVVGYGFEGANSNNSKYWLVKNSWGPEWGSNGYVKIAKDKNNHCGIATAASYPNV
Experiment: Inhibition of cathepsin L2

Compound	IC50
Cc1cc(C(=O)N[C@@H](Cc2cccc(Cl)c2)C(=O)NCC#N)c(C)s1	501 nM
N#CCNC(=O)[C@H](Cc1cccc(Cl)c1)NC(=O)C1CCCCCC1	6310 nM
N#CCNC(=O)[C@H](Cc1cccc(Cl)c1)NC(=O)c1cccc2c1CCCC2	> 10000 nM
Cc1ccccc1C(=O)N[C@@H](Cc1cccc(Cl)c1)C(=O)NCC#N	5010 nM
N#CCNC(=O)[C@H](Cc1cccc(Cl)c1)NC(=O)C1=CCCCC1	398 nM
Cc1nc(C)c(C(=O)N[C@@H](Cc2cccc(Cl)c2)C(=O)NCC#N)s1	251 nM
N#CCNC(=O)[C@H](Cc1cccc(Cl)c1)NC(=O)c1ccnc2ccccc12	3160 nM
CCc1cc(C(=O)N[C@@H](Cc2cccc(Cl)c2)C(=O)NCC#N)n(C)n1	501 nM
Cc1cc(C(=O)N[C@@H](Cc2cccc(Cl)c2)C(=O)NCC#N)n(C)n1	1260 nM
Cc1nn(C)cc1C(=O)N[C@@H](Cc1cccc(Cl)c1)C(=O)NCC#N	1260 nM
Cc1ccc(C)c(C(=O)N[C@@H](Cc2cccc(Cl)c2)C(=O)NCC#N)c1	1580 nM
N#CCNC(=O)[C@H](Cc1cccc(Cl)c1)NC(=O)c1cccc2ccccc12	3980 nM
N#CCNC(=O)[C@H](Cc1cccc(Cl)c1)NC(=O)c1cccc(Cl)c1	200 nM
Cc1nc(C(=O)N[C@@H](Cc2cccc(Cl)c2)C(=O)NCC#N)c(C)o1	2510 nM
Cc1cccc(C(=O)N[C@@H](Cc2cccc(Cl)c2)C(=O)NCC#N)c1C	3980 nM
Cc1cc(C)cc(C(=O)N[C@@H](Cc2cccc(Cl)c2)C(=O)NCC#N)c1	200 nM
N#CCNC(=O)[C@H](Cc1cccc(Cl)c1)NC(=O)C1CCCCC1	6310 nM
CC(C)c1cc(C(=O)N[C@@H](Cc2cccc(Cl)c2)C(=O)NCC#N)n(C)n1	501 nM
Cc1ccc(C(=O)N[C@@H](Cc2cccc(Cl)c2)C(=O)NCC#N)cc1	1000 nM
Cc1cc(C(=O)N[C@@H](Cc2cccc(Cl)c2)C(=O)NCC#N)c2cc(C)ccc2c1	1000 nM
Cc1cccc(C(=O)N[C@@H](Cc2cccc(Cl)c2)C(=O)NCC#N)c1	794 nM

Target: Procathepsin L (Homo sapiens, UniProt P07711)
Sequence (P07711 whole entry): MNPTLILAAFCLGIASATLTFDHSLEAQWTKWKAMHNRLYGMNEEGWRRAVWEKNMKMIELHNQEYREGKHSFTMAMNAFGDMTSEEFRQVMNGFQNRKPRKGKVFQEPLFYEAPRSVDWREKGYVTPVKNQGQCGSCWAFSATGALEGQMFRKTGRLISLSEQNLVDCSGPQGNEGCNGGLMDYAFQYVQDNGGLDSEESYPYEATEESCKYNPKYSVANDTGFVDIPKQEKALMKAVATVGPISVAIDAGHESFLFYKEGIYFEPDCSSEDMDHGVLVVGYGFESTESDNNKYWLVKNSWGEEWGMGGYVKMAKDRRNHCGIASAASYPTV
Experiment: Inhibition of cathepsin L

Compound	IC50
Cc1cc(C(=O)N[C@@H](Cc2cccc(Cl)c2)C(=O)NCC#N)c(C)s1	79.4 nM
N#CCNC(=O)[C@H](Cc1cccc(Cl)c1)NC(=O)C1CCCCCC1	316 nM
N#CCNC(=O)[C@H](Cc1cccc(Cl)c1)NC(=O)c1cccc2c1CCCC2	398 nM
Cc1ccccc1C(=O)N[C@@H](Cc1cccc(Cl)c1)C(=O)NCC#N	794 nM
N#CCNC(=O)[C@H](Cc1cccc(Cl)c1)NC(=O)C1=CCCCC1	501 nM
Cc1nc(C)c(C(=O)N[C@@H](Cc2cccc(Cl)c2)C(=O)NCC#N)s1	398 nM
N#CCNC(=O)[C@H](Cc1cccc(Cl)c1)NC(=O)c1ccnc2ccccc12	100 nM
CCc1cc(C(=O)N[C@@H](Cc2cccc(Cl)c2)C(=O)NCC#N)n(C)n1	63.1 nM
Cc1cc(C(=O)N[C@@H](Cc2cccc(Cl)c2)C(=O)NCC#N)n(C)n1	501 nM
Cc1nn(C)cc1C(=O)N[C@@H](Cc1cccc(Cl)c1)C(=O)NCC#N	1260 nM
Cc1ccc(C)c(C(=O)N[C@@H](Cc2cccc(Cl)c2)C(=O)NCC#N)c1	79.4 nM
N#CCNC(=O)[C@H](Cc1cccc(Cl)c1)NC(=O)c1cccc2ccccc12	251 nM
N#CCNC(=O)[C@H](Cc1cccc(Cl)c1)NC(=O)c1cccc(Cl)c1	79.4 nM
Cc1nc(C(=O)N[C@@H](Cc2cccc(Cl)c2)C(=O)NCC#N)c(C)o1	631 nM
Cc1cccc(C(=O)N[C@@H](Cc2cccc(Cl)c2)C(=O)NCC#N)c1C	316 nM
Cc1cc(C)cc(C(=O)N[C@@H](Cc2cccc(Cl)c2)C(=O)NCC#N)c1	50.1 nM
N#CCNC(=O)[C@H](Cc1cccc(Cl)c1)NC(=O)C1CCCCC1	1260 nM
CC(C)c1cc(C(=O)N[C@@H](Cc2cccc(Cl)c2)C(=O)NCC#N)n(C)n1	79.4 nM
Cc1ccc(C(=O)N[C@@H](Cc2cccc(Cl)c2)C(=O)NCC#N)cc1	251 nM
Cc1cc(C(=O)N[C@@H](Cc2cccc(Cl)c2)C(=O)NCC#N)c2cc(C)ccc2c1	20 nM
Cc1cccc(C(=O)N[C@@H](Cc2cccc(Cl)c2)C(=O)NCC#N)c1	251 nM

Target: Cathepsin S (Homo sapiens, UniProt P25774)
Sequence (P25774 whole entry): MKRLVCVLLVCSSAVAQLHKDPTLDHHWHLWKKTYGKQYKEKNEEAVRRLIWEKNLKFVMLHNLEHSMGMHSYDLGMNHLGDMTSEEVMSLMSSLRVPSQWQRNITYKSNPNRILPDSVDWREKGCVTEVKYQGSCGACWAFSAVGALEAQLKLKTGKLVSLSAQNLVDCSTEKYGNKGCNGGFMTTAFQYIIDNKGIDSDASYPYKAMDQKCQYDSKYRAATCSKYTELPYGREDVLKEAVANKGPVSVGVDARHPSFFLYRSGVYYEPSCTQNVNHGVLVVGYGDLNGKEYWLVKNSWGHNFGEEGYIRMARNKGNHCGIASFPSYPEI
Experiment: Inhibition of cathepsin S

Compound	IC50
Cc1cc(C(=O)N[C@@H](Cc2cccc(Cl)c2)C(=O)NCC#N)c(C)s1	794 nM
N#CCNC(=O)[C@H](Cc1cccc(Cl)c1)NC(=O)C1CCCCCC1	2510 nM
N#CCNC(=O)[C@H](Cc1cccc(Cl)c1)NC(=O)c1cccc2c1CCCC2	> 10000 nM
Cc1ccccc1C(=O)N[C@@H](Cc1cccc(Cl)c1)C(=O)NCC#N	1580 nM
N#CCNC(=O)[C@H](Cc1cccc(Cl)c1)NC(=O)C1=CCCCC1	2000 nM
Cc1nc(C)c(C(=O)N[C@@H](Cc2cccc(Cl)c2)C(=O)NCC#N)s1	200 nM
N#CCNC(=O)[C@H](Cc1cccc(Cl)c1)NC(=O)c1ccnc2ccccc12	3160 nM
CCc1cc(C(=O)N[C@@H](Cc2cccc(Cl)c2)C(=O)NCC#N)n(C)n1	794 nM
Cc1cc(C(=O)N[C@@H](Cc2cccc(Cl)c2)C(=O)NCC#N)n(C)n1	794 nM
Cc1nn(C)cc1C(=O)N[C@@H](Cc1cccc(Cl)c1)C(=O)NCC#N	1260 nM
Cc1ccc(C)c(C(=O)N[C@@H](Cc2cccc(Cl)c2)C(=O)NCC#N)c1	1260 nM
N#CCNC(=O)[C@H](Cc1cccc(Cl)c1)NC(=O)c1cccc2ccccc12	3160 nM
N#CCNC(=O)[C@H](Cc1cccc(Cl)c1)NC(=O)c1cccc(Cl)c1	200 nM
Cc1nc(C(=O)N[C@@H](Cc2cccc(Cl)c2)C(=O)NCC#N)c(C)o1	794 nM
Cc1cccc(C(=O)N[C@@H](Cc2cccc(Cl)c2)C(=O)NCC#N)c1C	2000 nM
Cc1cc(C)cc(C(=O)N[C@@H](Cc2cccc(Cl)c2)C(=O)NCC#N)c1	316 nM
N#CCNC(=O)[C@H](Cc1cccc(Cl)c1)NC(=O)C1CCCCC1	2510 nM
CC(C)c1cc(C(=O)N[C@@H](Cc2cccc(Cl)c2)C(=O)NCC#N)n(C)n1	794 nM
Cc1ccc(C(=O)N[C@@H](Cc2cccc(Cl)c2)C(=O)NCC#N)cc1	631 nM
Cc1cc(C(=O)N[C@@H](Cc2cccc(Cl)c2)C(=O)NCC#N)c2cc(C)ccc2c1	1000 nM
Cc1cccc(C(=O)N[C@@H](Cc2cccc(Cl)c2)C(=O)NCC#N)c1	398 nM
